Test system: microorganism in the agar layer
Assay: Delvotest SP NT microbial growth inhibition assay, colour of the agar indicator, with or without added milk
Assay type: cell-based
Conditions: 2 ppb test solution, with added milk or added water, 60 to 210 min
Procedure: From all samples solutions 100 μl is brought in the Delvotest SP NT Ampoule with an Eppendorf pipet of 100 μl. With the point of the pipet the tube cover top of the ampoule will be penetrated and the 100 μl is added to the ampoule. Put the ampoules for 2.5 h in a water bath of 65° C. Seal the ampoule with tape. After 2.5 h the ampoules are removed from the water bath. Check if the blanks are yellow, if not prolong the time in the water bath with 30 min. Yellow is negative and purple is positive. Positive means there is antimicrobial activity present in the sample which is higher than 2 ppb (calculated as penicillin G K). Two samples, a blank (water) and 2 ppb penicillin G K test solution were analysed using commercially available (DSM Food Specialties B.V., Delft, The Netherlands) Delvotest SP NT analogous to the supplier's manual. Two ampoules were filled with blank sample. To one milk (regular low-fat milk from a Dutch supermarket was used in the present example) was added according to the instruction as outlined in Example 1 and to the other the same amount of water was added. […] The ampoules filled with sample were incubated at 64° C.+/−2° C.) and the colour of the agar in the ampoules was visually recorded at several points in time. […]

CC1(C)S[C@@H]2[C@H](NC(=O)Cc3ccccc3)C(=O)N2[C@H]1C(=O)[O-].[K+] [Penicillin G K test solution, penicillin G K]
colour change of the indicator (inhibiting effect on growth of the microorganism): do not show any colour change
